Results from patent US11730712B2, “Functionalized long-chain hydrocarbon mono- and di-carboxylic acids and derivatives thereof, and their use for the prevention or treatment of disease” (ESPERVITA THERAPEUTICS, INC., priority 2021, dated 2023).
Values joined by “and” are separate entries in the source; they are usually repeats but may differ in a detail not shown here. Equal values may be shown once.

Experiments:
Assay in all cases: Kinase assay, wild type kinases
Type in all cases: biochemical
[1] = target: T1, AURORA C (Homo sapiens, UniProt Q9UQB9); details: compound 10 μM, 10 μM ATP, duplicate (Data 1, Data 2), >100 activation, <100 inhibition; for remaining activity at 10 µM: read-out: % Enzyme Activity (relative to DMSO controls), AURORA C
T1 sequence (Q9UQB9 1-309): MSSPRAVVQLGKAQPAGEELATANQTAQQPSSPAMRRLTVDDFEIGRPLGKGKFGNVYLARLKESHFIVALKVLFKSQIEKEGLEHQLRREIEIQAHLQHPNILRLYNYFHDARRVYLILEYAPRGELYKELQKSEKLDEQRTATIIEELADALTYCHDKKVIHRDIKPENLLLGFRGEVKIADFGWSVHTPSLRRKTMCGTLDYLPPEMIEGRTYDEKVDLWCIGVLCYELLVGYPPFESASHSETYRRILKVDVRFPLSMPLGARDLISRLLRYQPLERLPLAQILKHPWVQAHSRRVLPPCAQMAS

[2] = target: MLCK/MYLK (Homo sapiens, UniProt Q15746); details: compound 10 μM, 10 μM ATP, duplicate (Data 1, Data 2), >100 activation, <100 inhibition; for remaining activity at 10 µM: read-out: % Enzyme Activity (relative to DMSO controls), MLCK/MYLK
[3] = target: TNIK (Homo sapiens, UniProt Q9UKE5); details: compound 10 μM, 10 μM ATP, duplicate (Data 1, Data 2), >100 activation, <100 inhibition; for remaining activity at 10 µM: read-out: % Enzyme Activity (relative to DMSO controls), TNIK
Chain of TNIK (Q9UKE5 whole entry, species assumed): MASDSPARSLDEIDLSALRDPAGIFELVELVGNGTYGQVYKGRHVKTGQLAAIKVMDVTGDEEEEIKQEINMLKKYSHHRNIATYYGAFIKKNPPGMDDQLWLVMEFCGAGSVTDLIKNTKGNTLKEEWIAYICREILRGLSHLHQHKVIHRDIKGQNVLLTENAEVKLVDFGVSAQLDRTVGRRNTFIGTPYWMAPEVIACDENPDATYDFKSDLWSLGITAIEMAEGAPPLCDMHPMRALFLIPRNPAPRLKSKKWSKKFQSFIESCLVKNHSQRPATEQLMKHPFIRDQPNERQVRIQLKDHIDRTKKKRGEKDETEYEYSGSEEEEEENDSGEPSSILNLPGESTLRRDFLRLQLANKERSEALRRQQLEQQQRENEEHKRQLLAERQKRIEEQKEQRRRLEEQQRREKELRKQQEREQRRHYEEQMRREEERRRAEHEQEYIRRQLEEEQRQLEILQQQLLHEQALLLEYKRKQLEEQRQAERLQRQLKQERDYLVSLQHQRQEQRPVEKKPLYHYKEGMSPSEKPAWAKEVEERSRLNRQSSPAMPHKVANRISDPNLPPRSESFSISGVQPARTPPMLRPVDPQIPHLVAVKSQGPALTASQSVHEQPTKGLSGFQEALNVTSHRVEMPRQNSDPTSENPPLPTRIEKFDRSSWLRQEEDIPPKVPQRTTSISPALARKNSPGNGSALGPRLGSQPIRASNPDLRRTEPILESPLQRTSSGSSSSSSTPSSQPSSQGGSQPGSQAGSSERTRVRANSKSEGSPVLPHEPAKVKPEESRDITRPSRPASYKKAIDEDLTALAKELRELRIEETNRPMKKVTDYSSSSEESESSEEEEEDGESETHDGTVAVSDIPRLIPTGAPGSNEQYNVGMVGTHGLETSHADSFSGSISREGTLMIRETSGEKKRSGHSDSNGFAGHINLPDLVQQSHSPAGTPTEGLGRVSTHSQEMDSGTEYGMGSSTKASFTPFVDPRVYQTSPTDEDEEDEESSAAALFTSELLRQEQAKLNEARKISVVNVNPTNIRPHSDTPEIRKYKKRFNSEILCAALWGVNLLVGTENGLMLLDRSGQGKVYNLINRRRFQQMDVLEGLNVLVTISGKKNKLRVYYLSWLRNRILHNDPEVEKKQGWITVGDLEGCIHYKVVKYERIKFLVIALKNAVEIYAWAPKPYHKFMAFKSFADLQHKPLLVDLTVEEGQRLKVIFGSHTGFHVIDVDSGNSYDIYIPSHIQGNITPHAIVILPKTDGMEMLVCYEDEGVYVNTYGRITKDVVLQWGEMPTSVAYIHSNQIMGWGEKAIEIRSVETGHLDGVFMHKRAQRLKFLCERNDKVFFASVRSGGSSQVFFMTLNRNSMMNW

[4] = target: T2, RIPK4 (Homo sapiens, UniProt P57078); details: compound 10 μM, 10 μM ATP, duplicate (Data 1, Data 2), >100 activation, <100 inhibition; for remaining activity at 10 µM: read-out: % Enzyme Activity (relative to DMSO controls), RIPK4
T2 sequence (P57078 1-832): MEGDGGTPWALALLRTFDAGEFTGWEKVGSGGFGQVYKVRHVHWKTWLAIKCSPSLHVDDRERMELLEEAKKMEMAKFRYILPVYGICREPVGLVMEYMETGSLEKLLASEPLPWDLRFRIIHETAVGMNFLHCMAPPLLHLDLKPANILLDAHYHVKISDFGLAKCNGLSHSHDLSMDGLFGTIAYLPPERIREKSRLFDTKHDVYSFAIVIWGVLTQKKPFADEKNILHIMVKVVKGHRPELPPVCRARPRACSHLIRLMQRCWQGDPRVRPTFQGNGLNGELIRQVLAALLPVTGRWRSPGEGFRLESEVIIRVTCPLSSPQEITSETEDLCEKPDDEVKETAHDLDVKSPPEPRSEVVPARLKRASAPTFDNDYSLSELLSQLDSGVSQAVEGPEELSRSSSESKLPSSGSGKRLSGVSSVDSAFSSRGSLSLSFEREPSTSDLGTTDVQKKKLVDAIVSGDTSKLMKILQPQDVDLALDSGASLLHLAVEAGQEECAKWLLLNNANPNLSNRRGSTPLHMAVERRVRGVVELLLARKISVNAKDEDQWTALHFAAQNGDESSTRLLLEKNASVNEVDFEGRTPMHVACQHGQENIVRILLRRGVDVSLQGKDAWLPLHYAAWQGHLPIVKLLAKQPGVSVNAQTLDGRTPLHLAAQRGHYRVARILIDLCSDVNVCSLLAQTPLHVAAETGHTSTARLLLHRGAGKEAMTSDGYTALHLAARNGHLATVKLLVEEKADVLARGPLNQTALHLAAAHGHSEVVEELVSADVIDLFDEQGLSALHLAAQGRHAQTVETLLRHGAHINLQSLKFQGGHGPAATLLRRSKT

[5] = target: T3, Aurora A (Homo sapiens, UniProt O14965); details: compound 10 μM, 10 μM ATP, duplicate (Data 1, Data 2), >100 activation, <100 inhibition; for remaining activity at 10 µM: read-out: % Enzyme Activity (relative to DMSO controls), Aurora A
T3 sequence (O14965 1-403): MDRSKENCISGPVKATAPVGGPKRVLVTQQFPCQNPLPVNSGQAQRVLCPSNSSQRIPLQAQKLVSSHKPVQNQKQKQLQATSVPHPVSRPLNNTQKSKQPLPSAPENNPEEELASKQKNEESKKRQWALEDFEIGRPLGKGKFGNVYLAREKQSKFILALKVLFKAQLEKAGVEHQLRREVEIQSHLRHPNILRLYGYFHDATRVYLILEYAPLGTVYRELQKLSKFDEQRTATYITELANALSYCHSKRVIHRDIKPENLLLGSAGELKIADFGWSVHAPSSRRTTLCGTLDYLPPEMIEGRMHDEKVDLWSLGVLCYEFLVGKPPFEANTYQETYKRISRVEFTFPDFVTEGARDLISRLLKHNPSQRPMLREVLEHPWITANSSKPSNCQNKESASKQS

[6] = target: T4, NEK2 (Homo sapiens, UniProt P51955); details: compound 10 μM, 10 μM ATP, duplicate (Data 1, Data 2), >100 activation, <100 inhibition; for remaining activity at 10 µM: read-out: % Enzyme Activity (relative to DMSO controls), NEK2
T4 sequence (P51955 1-445): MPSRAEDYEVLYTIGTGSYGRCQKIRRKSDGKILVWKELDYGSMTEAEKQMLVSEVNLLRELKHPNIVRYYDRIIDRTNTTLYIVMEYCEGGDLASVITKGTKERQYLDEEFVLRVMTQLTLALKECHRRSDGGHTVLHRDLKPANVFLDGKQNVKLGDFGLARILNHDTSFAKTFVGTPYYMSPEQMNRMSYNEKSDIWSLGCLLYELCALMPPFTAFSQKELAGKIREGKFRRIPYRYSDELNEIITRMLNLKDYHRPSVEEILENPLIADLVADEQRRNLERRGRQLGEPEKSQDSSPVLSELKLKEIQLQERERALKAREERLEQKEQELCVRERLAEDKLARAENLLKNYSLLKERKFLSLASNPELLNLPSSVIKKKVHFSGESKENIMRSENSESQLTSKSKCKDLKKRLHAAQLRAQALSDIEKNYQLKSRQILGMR

| Compound | remaining activity at 10 µM [1] [%] | remaining activity at 10 µM [2] [%] | remaining activity at 10 µM [3] [%] | remaining activity at 10 µM [4] [%] | remaining activity at 10 µM [5] [%] | remaining activity at 10 µM [6] [%] | % Enzyme Activity (relative to DMSO controls), AURORA C [1] | % Enzyme Activity (relative to DMSO controls), MLCK/MYLK [2] | % Enzyme Activity (relative to DMSO controls), TNIK [3] | % Enzyme Activity (relative to DMSO controls), RIPK4 [4] | % Enzyme Activity (relative to DMSO controls), Aurora A [5] | % Enzyme Activity (relative to DMSO controls), NEK2 [6] |
| --- | --- | --- | --- | --- | --- | --- | --- | --- | --- | --- | --- | --- |
| CC(C)(CCCCc1ccc(CCCCC(C)(C)C(=O)O)cc1)C(=O)O [Compound I-1, 6-[4-(5-carboxy-5-methylhexyl)-phenyl]-2,2-dimethylhexanoic acid] | 101 | 110 | 106 | 45.1 | 89.1 | 90.3 |  |  |  |  |  |  |
| CC(C)(CCCCc1ccc(CCCCC(C)(C)C(=O)SCCNC(=O)CCNC(=O)[C@H](O)C(C)(C)COP(=O)(O)OP(=O)(O)OC[C@H]2O[C@@H](n3cnc4c(N)ncnc43)[C@H](O)[C@@H]2OP(=O)(O)O)cc1)C(=O)O [Compound I-1-CoA, 6-[4-(5-carboxy-5-methylhexyl)-phenyl]-2,2-dimethylhexanoic acid Coenzyme A ester] |  |  |  |  |  |  | 78.81% and 72.15% | 2.06% and −0.71% | 39.22% and 36.50% | 32.26% and 29.70% | 12.44% and 12.42% | 0.89% and 0.63% |
| CC(C)(CCCCc1cccc(CCCCC(C)(C)C(=O)O)c1)C(=O)O [Compound I-32, 6-[3-(5-carboxy-5-methylhexyl)-phenyl]-2,2-dimethylhexanoic acid] | 104 | 106 | 101 | 43 | 94.9 | 87.8 |  |  |  |  |  |  |
| CC(C)(CCCCc1cccc(CCCCC(C)(C)C(=O)SCCNC(=O)CCNC(=O)[C@H](O)C(C)(C)COP(=O)(O)OP(=O)(O)OC[C@H]2O[C@@H](n3cnc4c(N)ncnc43)[C@H](O)[C@@H]2OP(=O)(O)O)c1)C(=O)O [Compound I-32-CoA, 6-[3-(5-Carboxy-5-methylhexyl)-phenyl]-2,2-dimethylhexanoic acid Coenzyme A Ester] |  |  |  |  |  |  | 48.46% and 46.83% | 3.21% and 1.59% | 70.02% and 66.13% | 33.02% and 32.84% | 13.04% and 11.95% | 35.98% and 34.99% |
